Assay results: patent US8952159B2, “Method for the production of amorphous rifaximin” (priority 2009, dated 2015)
Converted amounts (≈) assume the structure as drawn.

Assay: Comparative test of solubility in water of different forms of rifaximin (spectrophotometric, absorbance at 450.50 nm)
Type: physicochemical
Details: suspension in deionized water, constant stirring; for Solubility in water: 25° C.
Protocol: The solubility in water of different forms of rifaximin was evaluated by means of spectrophotometric method, by performing the analyses on a Lambda10 (Perkin Elmer) apparatus. The tests were performed at room temperature in demineralized water according to the following methodology. 1 g of commercial rifaximin (identified as form γ by X diffractometry) was dried in thermogravimetric apparatus at 105° C. until constant weight. 50.3 mg of the dried powder were weighed and brought in solution with deionized water in 2-L calibrated flask (solution 1). Under these conditions rifaximin was fully dissolved. On a portion of the obtained solution the spectral scanning was performed in the range of wavelengths comprised between 190 and 800 nm, by using as white deionized water. The obtained absorption spectrum points out an isolated maximum at 450.50 nm and such wavelength was used for the analytical measures. The calibration straight line was obtained by dilution of portions of the solution 1, thus obtaining the solution 2 (dilution 1:2.5), the solution 3 (1:10), the solution 4 (1:20) and the solution 5 (1:50). The straight line resulted to follow the Lambert-Beer law, showing linearity in the concentration range of the five measured reference solutions. For the tests for comparing the solubilities of the different forms, the absorbance of samples obtained from rifaximin suspensions in water excess subjected to constant stirring at 25° C. was measured. After drying at 105° C. until weight constancy, quantities properly weighed of the samples under examination (for a value of about 15 mg) were placed in becker under magnetic stirring, at 25° C. with 80 ml of deionized water. Measures on different samples obtained according to the methodologies reported in the examples 8 and 13 (defined full amorphous), on amorphous ones obtained as described in the examples 1 and 5 (with two halos) and compared to those of commercially available rifaximin, verified as form γ. In different periods of time comprised between 0.5 and 180 minutes, about 2-ml collections were performed, placed in test tube, having the prudence of preventing the collection of the suspended solid by means of filtration with filters for HPLC with porosity 0.2 μm. 0.3 ml of the collected solution were read at the UV by measuring the absorbance 450.50 nm. The samples with higher concentration, with absorbances so as to fall out of the range of the calibration straight line, were diluted until going back to the calibration range. Each experimental point consisted in 3 measures, the values thereof, coincident within 5% of error, were mediated. The concentrations are expressed in grams/liter.

| Compound | Solubility in water (time 5 min) [µg/mL] | Solubility in water (time 10 min) [µg/mL] | Solubility in water (time 30 min) [µg/mL] | Solubility in water (time 60 min) [µg/mL] | Solubility in water (time 120 min) [µg/mL] | Solubility in water (time 180 min) [µg/mL] | solubility at 1 min (deionized water, 25 °C, water, thermodynamic from solid, time 1 min) [µg/mL] | Solubility in water (time 0.5 min) [µg/mL] | Solubility in water (time 2 min) [µg/mL] | solubility at 120 min (deionized water, 25 °C, water, thermodynamic from solid, time 120 min) [µg/mL] |
| --- | --- | --- | --- | --- | --- | --- | --- | --- | --- | --- |
| CO[C@H]1/C=C/O[C@@]2(C)Oc3c(C)c(O)c4c(O)c(c5c(nc6cc(C)ccn65)c4c3C2=O)NC(=O)/C(C)=C\C=C\[C@H](C)[C@H](O)[C@@H](C)[C@@H](O)[C@@H](C)[C@H](OC(C)=O)[C@@H]1C [form γ, rifaximin] | 8.2 (≈ 10.4 µM) | 15 (≈ 19.1 µM) | 23 (≈ 29.3 µM) | 37 (≈ 47.1 µM) | 43 (≈ 54.7 µM) | 42 (≈ 53.4 µM) | 5.4 (≈ 6.87 µM) | 2.7 (≈ 3.44 µM) | 5.9 (≈ 7.51 µM) | – |
| CO[C@H]1/C=C/O[C@@]2(C)Oc3c(C)c(O)c4c(O)c(c5c(nc6cc(C)ccn65)c4c3C2=O)NC(=O)/C(C)=C\C=C\[C@H](C)[C@H](O)[C@@H](C)[C@@H](O)[C@@H](C)[C@H](OC(C)=O)[C@@H]1C [example 8, rifaximin] | 29 (≈ 36.9 µM) | 51 (≈ 64.9 µM) | 76 (≈ 96.7 µM) | 82 (≈ 104 µM) | – | 86.4 (≈ 110 µM) | – | 3.3 (≈ 4.2 µM) | 13 (≈ 16.5 µM) | 85 (≈ 108 µM) |
| CO[C@H]1/C=C/O[C@@]2(C)Oc3c(C)c(O)c4c(O)c(c5c(nc6cc(C)ccn65)c4c3C2=O)NC(=O)/C(C)=C\C=C\[C@H](C)[C@H](O)[C@@H](C)[C@@H](O)[C@@H](C)[C@H](OC(C)=O)[C@@H]1C [example 1, rifaximin] | 6.9 (≈ 8.78 µM) | 14 (≈ 17.8 µM) | 25 (≈ 31.8 µM) | 36 (≈ 45.8 µM) | 46 (≈ 58.5 µM) | 45 (≈ 57.3 µM) | – | 1.11 (≈ 1.41 µM) | 5.1 (≈ 6.49 µM) | – |

More lines, now with the values ahead:

| Solubility in water (time 5 min) [µg/mL] | Solubility in water (time 10 min) [µg/mL] | Solubility in water (time 30 min) [µg/mL] | Solubility in water (time 60 min) [µg/mL] | Solubility in water (time 120 min) [µg/mL] | Solubility in water (time 180 min) [µg/mL] | solubility at 1 min (deionized water, 25 °C, water, thermodynamic from solid, time 1 min) [µg/mL] | Solubility in water (time 0.5 min) [µg/mL] | Solubility in water (time 2 min) [µg/mL] | solubility at 120 min (deionized water, 25 °C, water, thermodynamic from solid, time 120 min) [µg/mL] | Compound |
| --- | --- | --- | --- | --- | --- | --- | --- | --- | --- | --- |
| 31 (≈ 39.4 µM) | 55 (≈ 70 µM) | 72 (≈ 91.6 µM) | 81 (≈ 103 µM) | 86 (≈ 109 µM) | 89 (≈ 113 µM) | – | – | – | – | CO[C@H]1/C=C/O[C@@]2(C)Oc3c(C)c(O)c4c(O)c(c5c(nc6cc(C)ccn65)c4c3C2=O)NC(=O)/C(C)=C\C=C\[C@H](C)[C@H](O)[C@@H](C)[C@@H](O)[C@@H](C)[C@H](OC(C)=O)[C@@H]1C [example 13, rifaximin] |
| 7.1 (≈ 9.03 µM) | 15 (≈ 19.1 µM) | 27 (≈ 34.4 µM) | 37 (≈ 47.1 µM) | 44 (≈ 56 µM) | 46 (≈ 58.5 µM) | – | – | – | – | CO[C@H]1/C=C/O[C@@]2(C)Oc3c(C)c(O)c4c(O)c(c5c(nc6cc(C)ccn65)c4c3C2=O)NC(=O)/C(C)=C\C=C\[C@H](C)[C@H](O)[C@@H](C)[C@@H](O)[C@@H](C)[C@H](OC(C)=O)[C@@H]1C [example 5, rifaximin] |
